From patent US20240261302A1, “METHODS OF TREATING NEURODEGENERATIVE DISEASES OR CONDITIONS” (FloraScience Inc., priority 2023, published 2024)

Assays:
[1] = tested on: HT22 cells; assay: Ferroptosis Assay (RSL3-induced cell death, MTT); format: cell-based, mouse; settings: Mus musculus, HT-22; HT22 cells, 1 hr pretreatment, 50 nM RSL3, 16 hr, MTT; read-out: Observed EC50 RSL3
Description: Ferroptosis Assay: HT22 cells were seeded at 3,000 cells/well in 96-well tissue culture plates in DMEM plus 10% FBS and 1% antibiotics. After 24 hr of plating, the cells were pretreated with different concentrations of test compounds or a vehicle control for 1 hr followed by coincubation with 50 nM RSL3 to induce the cell death cascade. After 16 hr of treatment, cell viability was measured by the MTT assay. Optical absorbance was measured at 570 nm on a SpectraMax M5 microplate reader. Samples were analyzed in eight to sixteen wells per independent experiment (n=8-16). Results were presented as the percentage of the controls with vehicle alone.

[2] = tested on: HT22 cells; assay: Oxytosis/ferroptosis assay with erastin (Table 2); format: cell-based; settings: Mus musculus, HT-22; erastin as inducer; method not given; read-out: Observed EC50 erastin

| Structure (SMILES) | EC50 [1] | EC50 [2] |
| --- | --- | --- |
| CCCCCc1cc(O)c(-c2cccc(C)c2)c(O)c1 [4-DI-CBND, 3′-methyl-4-pentyl-[1,1′-biphenyl]-2,6-diol] | 4200 nM | 9600 nM |
| CCCCCc1cc(O)c2c(c1)OC(C)(C)c1ccc(CO)cc1-2 [11-OH-CBN, 9-(hydroxymethyl)-6,6-dimethyl-3-pentyl-6H-benzo[c]chromen-1-ol] | 1300 nM | 4700 nM |
| C=C(C)[C@@H]1CCC(C)=C[C@H]1c1c(O)cc(O)cc1CCCCC [Abn-CBD, 4-[(1R,6R)-3-methyl-6-(1-methylethenyl)-2-cyclohexen-1-yl]-5-pentyl-1,3-benzenediol] | 3900 nM | 8000 nM |
| CCCc1cc(O)cc2c1-c1cc(C)ccc1C(C)(C)O2 [Abn-CBNV, 6,6,9-trimethyl-1-propyl-6H-benzo[c]chromen-3-ol] | 4900 nM | 9500 nM |
| CCCCCc1cc(O)c2c(c1)OC(C)(CCC=C(C)C)C=C2 (centres unmarked) [CBC, 2-Methyl-2-(4-methylpent-3-enyl)-7-pentyl-5-chromenol] | 1100 nM | 8700 nM |
| C=C(C)[C@@H]1CCC(C)=C[C@H]1c1c(O)cc(CCCCC)cc1O [CBD, 2-[(1R,6R)-6-Isopropenyl-3-methylcyclohex-2-en-1-yl]-5-pentylbenzene-1,3-diol] | 860 nM | 8800 nM |
| C=C(C)C1CCC(C)=CC1c1c(OC(C)=O)cc(CCCCC)cc1OC(C)=O (centres unmarked) [CBD-(OAc)2, 5′-methyl-4-pentyl-2′-(prop-1-en-2-yl)-1′,2′,3′,4′-tetrahydro-[1,1′-biphenyl]-2,6-diyl diacetate] | 2400 nM | 9100 nM |
| C=C(C)[C@@H]1CCC(C)=C[C@H]1c1c(O)cc(CCCCC)c(C(=O)O)c1O [CBDA, (1′R,2′R)-2,6-Dihydroxy-5′-methyl-4-pentyl-2′-(prop-1-en-2-yl)-1′,2′,3′,4′-tetrahydro[1,1′-biphenyl]-3-carboxylic acid] | 9300 nM | > 10000 nM |
| C=C(C)[C@@H]1CCC(C)=C[C@H]1c1c(O)cc(CCC)cc1O [CBDV, 2-[(1R,6R)-6-Isopropenyl-3-methylcyclohex-2-en-1-yl]-5-propylbenzene-1,3-diol] | 1000 nM | 3800 nM |
| C=C(C)[C@@H]1CC[C@](C)(O)[C@H]2Oc3cc(CCCCC)cc(O)c3[C@@H]12 [CBE, (5aS,6S,9R,9aR)-6-methyl-3-pentyl-9-prop-1-en-2-yl-7,8,9,9a-tetrahydro-5aH-dibenzofuran-1,6-diol] | > 10000 nM | > 10000 nM |
| CCCCCc1cc(O)c2c(c1)oc1c(C)ccc(C(C)C)c12 [CBF, 5-isopropyl-8-methyl-2-pentyl-9-oxa-4-fluorenol] | 150 nM | 310 nM |
| CCCCCc1cc(O)c(C/C=C(\C)CCC=C(C)C)c(O)c1 [CBG, 2-[(2E)-3,7-Dimethylocta-2,6-dienyl]-5-pentyl-benzene-1,3-diol] | 3200 nM | 10800 nM |
| CCCCCc1cc(O)c(C/C=C(\C)CCC=C(C)C)c(O)c1C(=O)O [CBGA, 3-[(2E)-3,7-Dimethylocta-2,6-dien-1-yl]-2,4-dihydroxy-6-pentylbenzoic acid] | > 10000 nM | > 10000 nM |
| CCCCCc1cc(O)c2c(c1)OC1(C)CCC3C1C2C3(C)C (stereo not drawn) [CBL, (1aR-(1a alpha,3a alpha,8b alpha,8calpha))-1a,2,3,3a,8b,8c-hexahydro-1,1,3a-trimethyl-6-pentyl-1H-4-oxabenzo(f)-cyclobut(cd)inden-8-ol] | 770 nM | 3300 nM |
| Cc1cc(O)c2c(c1)OC(C)(C)c1ccc(C)cc1-2 [CBN-C1, 3-methyl-6,6,9-trimethyl-6H-benzo[c]chromen-1-ol] | 2200 nM | 6900 nM |
| CCc1cc(O)c2c(c1)OC(C)(C)c1ccc(C)cc1-2 [CBN-C2, 3-ethyl-6,6,9-trimethyl-6H-benzo[c]chromen-1-ol] | 1800 nM | 5600 nM |
| CCCCc1cc(O)c2c(c1)OC(C)(C)c1ccc(C)cc1-2 [CBN-C4, 3-butyl-6,6,9-trimethyl-6H-benzo[c]chromen-1-ol] | 1100 nM | 2100 nM |
| CCCCCCc1cc(O)c2c(c1)OC(C)(C)c1ccc(C)cc1-2 [CBN-C6, 3-hexyl-6,6,9-trimethyl-6H-benzo[c]chromen-1-ol] | 900 nM | 2000 nM |
| CCCCCCCc1cc(O)c2c(c1)OC(C)(C)c1ccc(C)cc1-2 [CBN-C7, 3-heptyl-6,6,9-trimethyl-6H-benzo[c]chromen-1-ol] | 2000 nM | 3800 nM |
| CCCCCc1cc(OC(C)=O)c2c(c1)OC(C)(C)c1ccc(C)cc1-2 [CBN-OAc, 1-acetoxy-6,6,9-trimethyl-3-pentyl-benzo[c]chromene] | 1300 nM | 1900 nM |

| Structure (SMILES) | EC50 [1] | EC50 [2] |
| --- | --- | --- |
| CCCCCc1cc(OC)c2c(c1)OC(C)(C)c1ccc(C)cc1-2 [CBN-OMe, 1-methoxy-6,6,9-trimethyl-3-pentyl-benzo[c]chromene] | > 10000 nM | > 10000 nM |
| CCCCCc1cc2c(c(O)c1C(=O)O)-c1cc(C)ccc1C(C)(C)O2 [CBNA, 1-hydroxy-6,6,9-trimethyl-3-pentyl-benzo[c]chromene-2-carboxylic acid] | > 10000 nM | > 10000 nM |
| C=C(C)c1ccc(C)cc1-c1c(O)cc(CCCCC)cc1O [CBND, 2,6-dihydroxy-4-pentyl-2′-isopropenyl-5′-methyl-1,1′-biphenyl] | 7700 nM | 15400 nM |
| CCCc1cc(OC(C)=O)c2c(c1)OC(C)(C)c1ccc(C)cc1-2 [CBNV-OAc, 6,6,9-trimethyl-3-propyl-6H-benzo[c]chromen-1-yl acetate] | 1600 nM | 4000 nM |
| CCCCCc1cc2c3c(c1)OC(C)(C)C1CCC(C)(CC31)O2 (centres unmarked) [CBT, 1,5,5-trimethyl-9-pentyl-6,15-dioxa-tetracyclo[9.3.1.0^4,13.0^7,12]-pentadeca-7(12),8,10-triene] | > 10000 nM | > 10000 nM |
| CCCCCc1cc(O)c2c(c1)OC1(C)CCC(=C(C)C)C2C1 (centres unmarked) [D4(8)-iso-THC, 3,4,5,6-tetrahydro-2-methyl-5-(1-methylethylidene)-9-pentyl-2,6-methano-2H-1-benzoxocin-7-ol] | 340 nM | 1500 nM |
| CCCCCc1cc(O)c2c(c1)OC(C)(C)C1=C2CC(C)CC1 (centres unmarked) [D6a,10a-THC, 6,6,9-trimethyl-3-pentyl-7,8,9,10-tetrahydro-6H-benzo[c]chromen-1-ol] | 700 nM | 1800 nM |
| C=C(C)C1CCC2(C)CC1c1c(O)cc(CCCCC)cc1O2 (centres unmarked) [D8(9)-iso-THC, 3,4,5,6-tetrahydro-2-methyl-5-(1-methylethenyl)-9-pentyl-2,6-methano-2H-1-benzoxocin-7-ol] | 330 nM | 2100 nM |
| CCCCCc1cc(O)c2c(c1)O[C@@H]1CCC(C)=C[C@]21C(C)C [D8(9)-iso-THCBF, (5aR,9aR)-9a-isopropyl-8-methyl-3-pentyl-5a,6,7,9a-tetra-hydrodibenzo[b,d]furan-1-ol] | 1400 nM | 5100 nM |
| CCCCCc1cc(O)c2c(c1)OC(C)(C)C1CC=C(C)CC21 (centres unmarked) [D8-THC, 6,6,9-trimethyl-3-pentyl-6a,7,10,10a-tetrahydro-6H-benzo[c]chromen-1-ol] | 800 nM | 2600 nM |
| CCCCCc1cc(O)c2c(c1)OC(C)(C)C1CCC(C)=CC21 (centres unmarked) [D9-THC, 6,6,9-trimethyl-3-pentyl-6a,7,8,10a-tetrahydro-6H-benzo[c]chromen-1-ol] | 4100 nM | 9400 nM |
| CCCCCc1cc(O)c2c(c1)OC(C)(C)C1CCC(C)C=C21 (centres unmarked) [D10-THC, 6,6,9-trimethyl-3-pentyl-6a,7,8,9-tetrahydro-6H-benzo[c]chromen-1-ol] | 130 nM | 620 nM |
| CCCCCc1cc(O)c([C@H]2C=C(C)CC[C@@H]2C(C)C)c(O)c1 [H2CBD, 2-[(1R,6R)-6-Isopropyl-3-methylcyclohex-2-en-1-yl]-5-pentylbenzene-1,3-diol] | 1100 nM | 4800 nM |
| CCCCCc1cc(O)c2c(c1)O[C@H]1[C@@H]2[C@H](C(C)C)CC[C@]1(C)O [H2CBE, (5aS,6S,9S,9aR)-9-isopropyl-6-methyl-3-pentyl-5a,6,7,8,9,9a-hexahydrodi-benzo[b,d]furan-1,6-diol] | 3500 nM | 9200 nM |
| CCCCCc1cc(O)c(-c2cc(C)ccc2C(C)C)c(O)c1 [H2CBND, 2,6-dihydroxy-4-pentyl-2′-isopropyl-5′-methyl-1,1′-biphenyl] | 2400 nM | 5700 nM |
| CCCCCc1cc(O)c([C@H]2CC(C)CC[C@@H]2C(C)C)c(O)c1 (stereo partly drawn) [H4CBD, 2-[(1S,6R)-6-Isopropyl-3-methylcyclohexyl]-5-pentylbenzene-1,3-diol] | 400 nM | 300 nM |
| CCCCCc1cc(O)c(CCC(C)CCCC(C)C)c(O)c1 (centres unmarked) [H4CBG, 2-(3,7-dimethyloctyl)-5-pentylbenzene-1,3-diol] | 400 nM | 700 nM |
| CCCCCc1cc(O)c2c(c1)OC(C)(C)C1CCC(C)CC21 (centres unmarked) [HHC, 6,6,9-trimethyl-3-pentyl-6a,7,8,9,10,10a-hexahydro-6H-benzo[c]chromen-1-ol] | 300 nM | 500 nM |
| CCCCCc1cc2c(c(O)c1C(=O)O)[C@@H]1C=C(C)CC[C@H]1C(C)(C)O2 [THCA, (6aR,10aR)-1-Hydroxy-6,6,9-trimethyl-3-pentyl-6a,7,8,10a-tetrahydro-6H-benzo[c]chromene-2-carboxylic acid] | > 10000 nM | > 10000 nM |
| CCCc1cc(O)c2c(c1)OC(C)(C)C1CCC(C)=CC21 (centres unmarked) [THCV, 6,6,9-Trimethyl-3-propyl-6a,7,8,10a-tetrahydro-6H-benzo[c]chromen-1-ol] | 780 nM | 3400 nM |
